Measured values reported in patent US20090118337A1, “Methods and compositions for treating inflammation” (priority 2005, published 2009).
Entries after “also recorded” stand apart in the source; their conditions may differ.

Key:
[1] = tested on: NF-κB; test: NF-κB luciferase reporter gene assay in 16HBEo- cell pairs stimulated with PAO1; format: cell-based, human; conditions: PAO1 stimulation, FIG. 2
Experimental: Cell lines: 16HBE-S and 16HBE-AS cells were grown in EMEM supplemented with 10% fetal bovine serum, 2 mM L-glutamine, 100 units/100 μg per ml of penicillin-streptomycin and 400 μg/ml G-418 as previously described.
Reporter Gene Assays: Cells were seeded in 24-well tissue culture dishes 24 hours before transfection. 20 ug luciferase plasmid and 10 ug Renilla plasmid were mixed into 2 mls serum-free DMEM. NFκB luciferase and AP-1 plasmids were purchased from BD Biosciences CLONTECH. pRLTK was used as an internal control for transfection efficiency.
300 ul Lipofectamine PLUS reagent (Invitrogen) was mixed with 200 ul serum-free DMEM. The PLUS reagent and plasmid were incubated for 15 minutes at room temperature. 100 ul Lipofectamine was added to 2.4 ml serum-free DMEM.
The lipofectamine and the DNA-PLUS solutions were mixed and incubated for an additional 15 minutes. The transfection mix was diluted into 20 mls of serum-free DMEM. 250 ul of diluted transfection mix was added to each well and the cells were incubated for 3 hours. Cells were lysed and the lysates assayed for luciferase activity.
A final stock concentration of 10 mM troglitazone (Cayman Chemical) was dissolved in DMSO and diluted to various concentrations. DMSO was added to the cells as a control. […]

[2] = tested on: IL-8; test: IL-8 secretion of cells grown with I172; format: cell-based, human; conditions: cells grown with I172, day 3
Experimental: (§1) At three or four weeks, on day 0, cells are switched to submerged culture (liquid-liquid interface, LLI) and treated with either DMSO 1:1000 (vehicle control, normal cells, Sigma, St. Louis, Mo.), or 20 μM CFTRinh-172 (kindly provided by Alan Verkman) prepared in DMSO, and diluted from a 1:1000 stock. Drugs are added to both the basolateral (1 or 2 ml volume, according to filter size) and the apical side (0.35 or 1.5 ml) and media replenished every 24H. […] At day 3, cells were committed to inflammatory stimulation with TNF IL-1 or PAO1 as indicated below. Cells committed to PAO1 stimulation were switched to serum-free media 24H prior PAO1 stimulation, kept in serum-free media until the end of the experiment, and media replenished every 12H during that time. Serum-free media contained 1:1 DMEM-Ham's F-12, pH. 7.2, L-glutamine 2.5 mM, Penicillin/Streptomycin 100 units/100 μg per ml, gentamicin 50 μg/ml, amphotericin B 1.25 μg/ml from Gibco, Invitrogen Corporation, Carlsbad, Calif.; fluconazole 2 μg/ml (DIFLUCON®, Pfizer); transferrin 5 μg/ml, hydrocortisone 5 μM, insulin 5 μg/ml, endothelial cell growth supplement 20 μg/mil, and bovine serum albumin 1 mg/ml from Sigma, St. Louis, Mo. Serum-containing media had the same antibiotics present as the serum-free media. Antibiotics were not present during PAO1 stimulation.

[3] = tested on: interaction between PPARγ and other transcription factors; test: Interaction of PPARγ with other transcription factors in well differentiated airway epithelial cells treated with I172; format: cell-based, human; conditions: I172 20 uM for 72 hr; particularly following stimulation with TNFα/IL1β
Experimental: Transcription Factor Arrays: TranSignal TF-TF Interaction Array I (Panomics) was processed according to the manufacturer's instructions. Nuclear extracts from 16HBEo-sense and antisense cells were incubated with biotin-labeled double-stranded oligonucleotides. PPARγ was immunoprecipitated with 3 μg of monoclonal antibody and Dynabeads (Dynal), which are magnetic protein G beads. Free cis-elements and non-specific binding proteins were washed away. PPARγ associated biotin-labeled probes were eluted from the beads and hybridized to TranSignal Protein/DNA array membranes. The arrays were blocked and incubated with Streptavidin-HRP and developed with a chemiluminescent detection system.
In order to test the impact of CFTR deficiency on the interaction of PPAR-γ with other transcription factors, we treated well differentiated airway epithelial cells grown at the ALI with I172 (20 uM), an inhibitor of CFTR activity, continuously for 72 hr prior to preparation of nuclear extracts or stimulation. […] This model allows one to compare, in well-differentiated airway epithelial cells that have identical genetic endowment at all loci, the effect of CFTR inhibition on various cellular processes. […] During the course of these experiments, cells from the airways of a patient with CF of genotype ΔF508/ΔF508, obtained at transplant, became available and were cultured at the air-liquid interface.

[4] = tested on: amiloride-sensitive sodium conductance; conditions: cells grown with 20 μM I172; cited from earlier work
[5] = tested on: RhoA; test: Activated RhoA in cells grown with I172; format: cell-based, human; conditions: cells grown with I172, day 3
Experimental: as §1

[6] = tested on: well differentiated airway epithelial cells; conditions: 20 μM I172; cited from earlier work
[7] = tested on: Smad3; test: Smad3 expression in cells grown with I172; format: cell-based, human; conditions: cells grown with I172, day 3
Experimental: as §1

[8] = high dose, CF; cited from earlier work
[9] = tested on: CF mice challenged with M57-15 P. aeruginosa; test: Acute Pseudomonas challenge model, CF mice (BAL inflammatory response); format: in vivo; conditions: pretreated by gavage, BAL 24 hours after P. aeruginosa challenge
Experimental: Pioglitazone inhibits the inflammatory response in CF mice to acute administration of Pseudomonas: Mice pretreated with pioglitazone or vehicle by gavage, then challenged with prior to challenge with M57-15 P. aeruginosa, underwent BAL for inflammatory response outcome measures 24 hours after challenge. Cell counts, cytokine values, and body weight were recorded. […] CF mice treated with vehicle had marked increase in inflammatory response compared to WT mice treated with vehicle, as previously reported for untreated mice (FIGS. 12-14).
In order to test the therapeutic potential of PPARγ agonists in CF animals, we utilized the acute pseudomonas challenge model in CF and non-CF mice, because it was the closest mimic of the acute pseudomonas challenge applied to the epithelial cells in culture. We administered pioglitazone by gavage because this is one of the two PPARγ agonists available for human use. […] However, the dose used in these studies was high compared to conventional human doses, on a weight basis, and the drug was administered prior to challenge, a luxury that may not be available for many patients with CF.

Question: With Cc1c(C)c2c(c(C)c1O)CCC(C)(COc1ccc(CC3SC(=O)NC3=O)cc1)O2 (single isomer, unassigned; (+)) [troglitazone, (+)-5[[4-[(3,4-dihydro-6-hydroxy-2,5,7,8-tetramethyl-2H-1-benzopyran-2-yl)methoxy]phenyl]methyl]-2,4thiazolidinedione] as the molecule, how does the “activation of NF-κB driven luciferase activity” value [1] read?
Answer: Its value is “significantly inhibited”.

Question: For O=C(O)c1ccc(/C=C2\SC(=S)N(c3cccc(C(F)(F)F)c3)C2=O)cc1 [I172], which “basal and stimulated secretion of IL-8” value [2] is on record?
Answer: Its value is “increased basal and stimulated secretion of IL-8”.

Question: What about the “interaction between PPARγ and other transcription factors” value [3] of the same molecule?
Answer: Its value is “less interaction”.

Question: What about the amiloride-sensitive sodium conductance [4] of the same molecule?
Answer: The amiloride-sensitive sodium conductance was “do not display increased amiloride-sensitive sodium conductance”.

Question: And the “activated RhoA” value [5]?
Answer: The value was “increased activated RhoA”.

Question: And the “cell morphology by electron microscopy” value [6]?
Answer: The value was “no decrease in cell viability or change in cell morphology”.

Question: What about the cell viability [6] of the same molecule?
Answer: Its cell viability is “no decrease in cell viability; also recorded: without compromising cell viability”.

Question: What about the Smad3 expression [7] of the same molecule?
Answer: The Smad3 expression was “decreased Smad3 expression”.

Question: Which “incidence of gastrointestinal hemorrhage” value [8] does the source give for CC(C)Cc1ccc(C(C)C(=O)O)cc1 (centres unmarked) [ibuprofen] here?
Answer: Its value is “increased incidence”.

Question: And the “rate of decline of pulmonary function” value [8]?
Answer: Its value is “slowed”.

Question: Which “inflammatory response (BAL cell counts, cytokine values, body weight) in CF mice” value [9] does the source give for CCc1ccc(CCOc2ccc(CC3SC(=O)NC3=O)cc2)nc1 (centres unmarked) [pioglitazone, 5-[4-[2-(5-ethylpyridin-2-yl)ethoxyl]benzyl]thiazolidine-2,4-dione] here?
Answer: Its value is “significant reduction of the inflammatory response; also recorded: In two of the three experiments, pioglitazone limited the inflammatory response; also recorded: significant reduction in inflammatory response”.
